This note sets out measurements from ChEMBL document CHEMBL6087459 (J Med Chem, 2025).

Molecules are shown by their SMILES. Activity calls are given as the source filed them. The calls are words filed in the database; no cut-off is given here. Some results are limits rather than exact numbers.

Data set [1] deals with Cryptosporidium parvum. Kind of data set: Antiparasitic activity against Cryptosporidium parvum Iowa oocyst infected in human HCT-8 cells assessed as reduction in asexual replication pre-infected with cells for 3 hrs followed by compound addition and measured after 48 hrs by staining based automated fluorescence microscopic analysis. Type of data set: functional, organism-based.

Data set [2] concerns HCT-8. Kind of data set: Cytotoxicity against human HCT-8 cells assessed as inhibition of cell proliferation at 25 to 50 uM incubated for 48 hrs by Celltiter aqueous assay. The format is toxicity, cell-based. The following applies: hct-8, 48 h, dose 25-50 µM.
Data set [3] has as its system HCT-8. Kind of data set: Cytotoxicity against human HCT-8 cells assessed as reduction in cell numbers at 25 uM incubated for 48 hrs by high-density microscopic celltiter aqueous assay relative to control. The format is toxicity, cell-based. Further details: scale not given: the % may be the effect or the level left. The following applies: hct-8, 48 h.
The test system of data set [4] is HCT-8. Nature of the data set: Cytotoxicity against human HCT-8 cells assessed as reduction in cell numbers at 50 uM incubated for 48 hrs by high-density microscopic celltiter aqueous assay relative to control. The following applies: hct-8, 48 h. Further details: scale not given: the % may be the effect or the level left. The format is toxicity, cell-based.
Data set [5] deals with HCT-8. Kind of data set: Cytotoxicity against human HCT-8 cells assessed as reduction in cell numbers upto 50 uM incubated for 48 hrs by high-density microscopic celltiter aqueous assay. The format is toxicity, cell-based. As to conditions: hct-8, 48 h.
Data set [6] is filed under the species Homo sapiens. Kind of data set: Inhibition of human PDE1B at 10 uM by Eurofins kinase assay relative to control.
Data set [7] addresses cGMP-dependent 3',5'-cyclic phosphodiesterase (Homo sapiens) (UniProt O00408). Nature of the data set: Inhibition of human PDE2A1 at 10 uM by Eurofins kinase assay relative to control.
For data set [8], the target named is cGMP-inhibited 3',5'-cyclic phosphodiesterase 3A (Homo sapiens) (UniProt Q14432). Kind of data set: Inhibition of human PDE3A at 10 uM by Eurofins kinase assay relative to control.
Data set [9] concerns the target cGMP-inhibited 3',5'-cyclic phosphodiesterase 3B (Homo sapiens) (UniProt Q13370). Kind of data set: Inhibition of human PDE3B at 10 uM by Eurofins kinase assay relative to control.
For data set [10], the species on record is Homo sapiens. Nature of the data set: Inhibition of human PDE4A1A at 10 uM by Eurofins kinase assay relative to control.
The target of data set [11] is 3',5'-cyclic-AMP phosphodiesterase 4B (Homo sapiens) (UniProt Q07343). Nature of the data set: Inhibition of human PDE4B1 at 10 uM by Eurofins kinase assay relative to control.
Chain of 3',5'-cyclic-AMP phosphodiesterase 4B (Homo sapiens) (Q07343 whole entry): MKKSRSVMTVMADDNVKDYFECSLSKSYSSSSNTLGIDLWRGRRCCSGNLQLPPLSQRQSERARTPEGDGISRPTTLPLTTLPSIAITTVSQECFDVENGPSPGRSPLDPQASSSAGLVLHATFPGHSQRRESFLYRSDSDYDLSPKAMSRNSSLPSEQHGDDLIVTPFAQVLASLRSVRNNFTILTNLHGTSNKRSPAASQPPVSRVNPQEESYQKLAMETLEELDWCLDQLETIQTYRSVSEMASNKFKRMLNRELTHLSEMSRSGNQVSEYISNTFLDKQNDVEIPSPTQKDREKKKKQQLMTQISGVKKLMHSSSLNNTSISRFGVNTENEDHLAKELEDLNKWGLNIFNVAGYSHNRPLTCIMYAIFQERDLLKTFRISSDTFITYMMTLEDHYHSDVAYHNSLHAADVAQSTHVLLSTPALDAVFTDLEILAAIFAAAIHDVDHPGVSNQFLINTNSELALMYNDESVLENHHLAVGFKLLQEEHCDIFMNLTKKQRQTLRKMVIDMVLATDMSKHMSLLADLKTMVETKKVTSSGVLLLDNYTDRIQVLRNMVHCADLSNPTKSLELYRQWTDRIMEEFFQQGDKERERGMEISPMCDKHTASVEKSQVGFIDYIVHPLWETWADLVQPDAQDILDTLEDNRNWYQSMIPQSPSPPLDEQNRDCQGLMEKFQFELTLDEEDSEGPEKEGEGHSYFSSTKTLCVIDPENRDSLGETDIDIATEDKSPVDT
Data set [12] deals with T1, 3',5'-cyclic-AMP phosphodiesterase 4D (Homo sapiens, UniProt Q08499). Kind of data set: Inhibition of human PDE4D2 at 10 uM by Eurofins kinase assay relative to control.
T1 sequence (Q08499 whole entry): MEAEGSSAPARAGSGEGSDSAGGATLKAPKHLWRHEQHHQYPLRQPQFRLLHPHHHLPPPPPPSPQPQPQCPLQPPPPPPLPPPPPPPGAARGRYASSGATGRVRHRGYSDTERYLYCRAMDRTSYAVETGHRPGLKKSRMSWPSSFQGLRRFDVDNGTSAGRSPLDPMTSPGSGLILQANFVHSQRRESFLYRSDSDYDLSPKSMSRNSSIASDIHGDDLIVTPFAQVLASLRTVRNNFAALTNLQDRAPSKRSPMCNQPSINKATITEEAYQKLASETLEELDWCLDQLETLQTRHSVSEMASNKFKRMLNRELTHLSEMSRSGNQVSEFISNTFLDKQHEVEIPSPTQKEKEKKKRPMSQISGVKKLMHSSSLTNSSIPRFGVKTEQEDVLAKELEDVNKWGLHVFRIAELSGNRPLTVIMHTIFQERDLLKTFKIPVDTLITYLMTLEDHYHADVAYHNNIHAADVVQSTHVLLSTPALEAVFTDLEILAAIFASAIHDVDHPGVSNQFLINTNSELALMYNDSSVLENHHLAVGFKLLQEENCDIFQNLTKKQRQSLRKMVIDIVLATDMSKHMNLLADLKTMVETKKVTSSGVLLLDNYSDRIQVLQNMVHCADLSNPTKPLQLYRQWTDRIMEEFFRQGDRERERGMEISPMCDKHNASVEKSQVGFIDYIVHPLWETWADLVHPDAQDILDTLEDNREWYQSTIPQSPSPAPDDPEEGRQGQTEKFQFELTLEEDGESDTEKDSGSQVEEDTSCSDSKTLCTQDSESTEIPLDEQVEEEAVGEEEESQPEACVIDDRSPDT
In data set [13] the target is cGMP-specific 3',5'-cyclic phosphodiesterase (Homo sapiens) (UniProt O76074). Nature of the data set: Inhibition of human PDE5 at 10 uM by Eurofins kinase assay relative to control.
The species entered for data set [14] is Homo sapiens. Kind of data set: Inhibition of human PDE6 at 10 uM by Eurofins kinase assay relative to control.
Data set [15] deals with High affinity 3',5'-cyclic-AMP phosphodiesterase 7A (Homo sapiens) (UniProt Q13946). Nature of the data set: Inhibition of human PDE7A1 at 10 uM by Eurofins kinase assay relative to control.
Chain of High affinity 3',5'-cyclic-AMP phosphodiesterase 7A (Homo sapiens) (Q13946 whole entry): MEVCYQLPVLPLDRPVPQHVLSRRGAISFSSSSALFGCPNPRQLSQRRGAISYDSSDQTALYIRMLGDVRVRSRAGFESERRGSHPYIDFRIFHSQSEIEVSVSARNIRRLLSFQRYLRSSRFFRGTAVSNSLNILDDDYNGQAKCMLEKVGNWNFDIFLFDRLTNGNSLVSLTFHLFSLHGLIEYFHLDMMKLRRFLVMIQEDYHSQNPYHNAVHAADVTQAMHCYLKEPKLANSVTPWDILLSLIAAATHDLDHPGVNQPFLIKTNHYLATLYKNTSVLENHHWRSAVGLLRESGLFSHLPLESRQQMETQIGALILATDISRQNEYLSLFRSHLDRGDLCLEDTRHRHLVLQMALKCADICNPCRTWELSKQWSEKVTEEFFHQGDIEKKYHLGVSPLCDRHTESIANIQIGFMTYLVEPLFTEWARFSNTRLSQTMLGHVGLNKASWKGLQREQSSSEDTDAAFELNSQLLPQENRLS
The target in data set [16] is High affinity cAMP-specific and IBMX-insensitive 3',5'-cyclic phosphodiesterase 8A (Homo sapiens) (UniProt O60658). Nature of the data set: Inhibition of human PDE8A1 at 10 uM by Eurofins kinase assay relative to control.
Chain of High affinity cAMP-specific and IBMX-insensitive 3',5'-cyclic phosphodiesterase 8A (Homo sapiens) (O60658 whole entry): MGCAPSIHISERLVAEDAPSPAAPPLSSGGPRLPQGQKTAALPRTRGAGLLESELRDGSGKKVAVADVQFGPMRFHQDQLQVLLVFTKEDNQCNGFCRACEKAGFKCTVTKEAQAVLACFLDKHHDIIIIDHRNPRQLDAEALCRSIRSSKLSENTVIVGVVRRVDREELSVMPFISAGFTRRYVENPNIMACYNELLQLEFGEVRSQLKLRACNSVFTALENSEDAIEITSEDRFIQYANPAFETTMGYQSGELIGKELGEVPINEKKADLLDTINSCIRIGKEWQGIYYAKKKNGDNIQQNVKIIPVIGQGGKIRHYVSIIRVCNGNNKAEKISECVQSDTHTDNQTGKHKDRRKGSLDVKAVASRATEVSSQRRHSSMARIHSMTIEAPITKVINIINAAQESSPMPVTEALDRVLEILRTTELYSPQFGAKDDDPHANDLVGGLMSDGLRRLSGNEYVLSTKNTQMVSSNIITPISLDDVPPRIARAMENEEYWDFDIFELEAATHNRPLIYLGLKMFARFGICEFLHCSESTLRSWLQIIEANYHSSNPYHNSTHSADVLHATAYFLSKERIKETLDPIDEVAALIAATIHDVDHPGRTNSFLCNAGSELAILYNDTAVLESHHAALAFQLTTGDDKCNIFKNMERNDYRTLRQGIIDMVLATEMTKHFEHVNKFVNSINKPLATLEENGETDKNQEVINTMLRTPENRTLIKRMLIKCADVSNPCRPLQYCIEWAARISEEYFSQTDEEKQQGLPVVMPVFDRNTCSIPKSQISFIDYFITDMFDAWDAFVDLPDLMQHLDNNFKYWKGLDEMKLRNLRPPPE
The target of data set [17] is cAMP and cAMP-inhibited cGMP 3',5'-cyclic phosphodiesterase 10A (Homo sapiens) (UniProt Q9Y233). Kind of data set: Inhibition of human PDE10A2 at 10 uM by Eurofins kinase assay relative to control.
Chain of cAMP and cAMP-inhibited cGMP 3',5'-cyclic phosphodiesterase 10A (Homo sapiens) (Q9Y233 whole entry): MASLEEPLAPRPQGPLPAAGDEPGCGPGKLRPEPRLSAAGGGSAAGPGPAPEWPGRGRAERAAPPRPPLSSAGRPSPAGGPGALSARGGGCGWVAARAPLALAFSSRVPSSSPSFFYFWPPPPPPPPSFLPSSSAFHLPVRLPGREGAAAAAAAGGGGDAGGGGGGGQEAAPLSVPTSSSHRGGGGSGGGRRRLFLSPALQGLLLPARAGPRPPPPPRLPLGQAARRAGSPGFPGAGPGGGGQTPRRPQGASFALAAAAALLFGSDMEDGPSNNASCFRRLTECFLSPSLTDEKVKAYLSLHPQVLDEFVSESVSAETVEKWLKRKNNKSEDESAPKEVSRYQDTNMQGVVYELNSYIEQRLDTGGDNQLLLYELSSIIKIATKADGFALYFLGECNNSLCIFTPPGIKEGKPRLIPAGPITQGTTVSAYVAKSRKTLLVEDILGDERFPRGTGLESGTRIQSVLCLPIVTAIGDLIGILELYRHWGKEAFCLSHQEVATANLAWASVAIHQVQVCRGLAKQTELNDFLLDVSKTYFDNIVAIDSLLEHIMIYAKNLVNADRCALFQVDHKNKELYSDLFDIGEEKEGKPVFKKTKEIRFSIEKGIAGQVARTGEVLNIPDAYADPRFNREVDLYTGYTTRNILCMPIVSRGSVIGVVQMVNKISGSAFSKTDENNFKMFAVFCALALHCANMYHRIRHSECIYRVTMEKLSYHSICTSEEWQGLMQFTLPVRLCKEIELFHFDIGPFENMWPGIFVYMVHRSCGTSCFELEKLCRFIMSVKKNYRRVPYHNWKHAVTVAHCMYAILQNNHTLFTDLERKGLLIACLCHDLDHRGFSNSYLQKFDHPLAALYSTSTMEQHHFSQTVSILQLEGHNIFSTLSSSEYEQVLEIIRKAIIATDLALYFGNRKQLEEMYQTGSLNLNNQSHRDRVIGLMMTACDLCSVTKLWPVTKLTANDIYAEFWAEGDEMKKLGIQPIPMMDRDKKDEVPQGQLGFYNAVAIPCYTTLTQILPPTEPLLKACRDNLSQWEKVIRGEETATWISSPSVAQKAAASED
Data set [18] concerns Cryptosporidium parvum. Kind of data set: Antiparasitic activity against Cryptosporidium parvum Iowa oocyst infected in NOD SCID gamma mouse model assessed as reduction in parasite fecal shedding at 50 mg/kg, po administered twice daily for 7 days starting from day 7 post infection and measured on day 21 by qPCR analysis. The format is functional, organism-based. As to conditions: time 14.0 day. A general note: Real-time PCR tracks product formation cycle by cycle.

Data set [19] addresses Dual 3',5'-cyclic-AMP and -GMP phosphodiesterase 11A (Homo sapiens) (UniProt Q9HCR9). Nature of the data set: Inhibition of human PDE11A at 10 uM by Eurofins kinase assay relative to control.
The nature of data set [20]: Aqueous solubility of compound at pH 7.4. Type of data set: physicochemical.
Data set [21] can be described thus: Cytotoxicity against human HCT-8 cells assessed as inhibition of cell proliferation incubated for 48 hrs by Celltiter aqueous assay. The format is toxicity, cell-based. The following applies: read-out: TC50.
Data set [22] addresses Voltage-gated inwardly rectifying potassium channel KCNH2 (Homo sapiens, UniProt Q12809). Kind of data set: Inhibition of human ERG by Eurofins kinase assay. The format is toxicity.
Data set [23] concerns the target Cytochrome P450 1A2 (Homo sapiens, UniProt P05177). Nature of the data set: Inhibition of recombinant human CYP1A2 by Eurofins assay. The format is ADME.
Data set [24] addresses T2, Cytochrome P450 2B6 (Homo sapiens, UniProt P20813). Kind of data set: Inhibition of recombinant human CYP2B6 by Eurofins assay. The format is ADME.
Data set [25] deals with Cytochrome P450 2C8 (Homo sapiens, UniProt P10632). Nature of the data set: Inhibition of recombinant human CYP2C8 by Eurofins assay. Type of data set: ADME.
The target of data set [26] is Cytochrome P450 2C19 (Homo sapiens, UniProt P33261). Kind of data set: Inhibition of recombinant human CYP2C19 by Eurofins assay. Type of data set: ADME.
Data set [27] concerns the target Cytochrome P450 2D6 (Homo sapiens, UniProt P10635). Kind of data set: Inhibition of recombinant human CYP2D6 by Eurofins assay. Type of data set: ADME.
Data set [28] has as its target Cytochrome P450 3A4 (Homo sapiens, UniProt P08684). Kind of data set: Inhibition of recombinant human CYP3A4 by Eurofins assay. Type of data set: ADME.
Data set [29] concerns the target T1, 3',5'-cyclic-AMP phosphodiesterase 4D. Kind of data set: Inhibition of human PDE4D2 by Eurofins kinase assay. The format is toxicity.
The target in data set [30] is PDE4B1 (Homo sapiens, UniProt Q07343). Kind of data set: Inhibition of recombinant human PDE4B1 extracted from Sf9 cells using [3H]cAMP as substrate at 10 uM by Eurofins kinase assay relative to control. The format is toxicity, cell-free. The following applies: probe [3H]cAMP.
Chain of PDE4B1 (Q07343 whole entry): as the sequence (Q07343 whole entry) above
In data set [31] the target is PDE5 (Homo sapiens, UniProt O76074). Nature of the data set: Inhibition of human platelet PDE5 using [3H]cGMP as substrate at 10 uM by Eurofins kinase assay relative to control. Type of data set: toxicity. As to conditions: human platelet PDE5, probe [3H]cGMP.
Data set [32] deals with PDE6. Kind of data set: Inhibition of bovine retina PDE6 using [3H]cGMP as substrate at 10 uM by Eurofins kinase assay relative to control. The format is toxicity, Bos taurus. The following applies: cattle, bovine retina PDE6, probe [3H]cGMP.
Data set [33] deals with PDE11A (Homo sapiens, UniProt Q9HCR9). Kind of data set: Inhibition of recombinant human PDE11A extracted from Sf9 cells using [3H]cAMP as substrate at 10 uM by Eurofins kinase assay relative to control. The format is toxicity, cell-free. As to conditions: probe [3H]cAMP.
For data set [34], the target named is T2, Cytochrome P450 2B6. Kind of data set: Inhibition of CYP2B6 (unknown origin) incubated for 20 mins by fast gradient LC-MS analysis.

Chain of cGMP-inhibited 3',5'-cyclic phosphodiesterase 3B (Homo sapiens) (Q13370 whole entry, looked up): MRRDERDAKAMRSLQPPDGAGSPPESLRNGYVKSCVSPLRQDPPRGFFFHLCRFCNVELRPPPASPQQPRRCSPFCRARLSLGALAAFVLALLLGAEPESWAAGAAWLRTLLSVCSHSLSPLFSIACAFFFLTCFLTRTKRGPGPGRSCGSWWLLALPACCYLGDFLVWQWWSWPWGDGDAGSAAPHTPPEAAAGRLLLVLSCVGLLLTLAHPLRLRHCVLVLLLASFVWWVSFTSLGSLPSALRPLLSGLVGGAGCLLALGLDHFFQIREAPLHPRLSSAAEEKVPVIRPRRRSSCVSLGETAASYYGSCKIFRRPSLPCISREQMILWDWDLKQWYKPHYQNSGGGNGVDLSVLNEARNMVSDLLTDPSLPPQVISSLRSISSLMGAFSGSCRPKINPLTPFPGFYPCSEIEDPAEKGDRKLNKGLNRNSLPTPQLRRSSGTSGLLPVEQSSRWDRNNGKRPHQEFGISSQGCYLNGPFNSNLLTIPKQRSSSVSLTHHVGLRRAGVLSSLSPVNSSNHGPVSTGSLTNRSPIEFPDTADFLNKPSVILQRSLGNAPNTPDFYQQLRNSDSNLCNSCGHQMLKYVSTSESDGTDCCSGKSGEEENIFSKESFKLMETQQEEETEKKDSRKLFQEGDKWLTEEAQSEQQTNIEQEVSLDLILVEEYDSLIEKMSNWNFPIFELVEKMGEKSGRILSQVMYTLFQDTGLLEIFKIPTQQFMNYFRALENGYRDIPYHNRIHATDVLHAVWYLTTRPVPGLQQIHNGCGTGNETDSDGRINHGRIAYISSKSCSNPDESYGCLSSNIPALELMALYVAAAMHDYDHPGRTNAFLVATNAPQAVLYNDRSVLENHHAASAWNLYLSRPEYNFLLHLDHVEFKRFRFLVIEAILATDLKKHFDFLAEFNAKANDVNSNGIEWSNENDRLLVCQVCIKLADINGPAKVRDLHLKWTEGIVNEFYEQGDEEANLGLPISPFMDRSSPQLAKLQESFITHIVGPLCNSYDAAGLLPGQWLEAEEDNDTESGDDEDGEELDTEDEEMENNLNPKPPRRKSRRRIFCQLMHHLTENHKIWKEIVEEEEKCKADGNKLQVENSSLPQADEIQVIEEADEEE

For orientation: EC50 means the concentration at which the effect is half-maximal. Regarding `CCc1nn(C)c2nc(-c3ccc4c(O)n[nH]c4c3)nc(NCc3ccc(F)cc3)c12`, in data set [1], the EC50 was found to be 6.1 µM. Also, the Activity result is “Toxic” in data set [2], 78% in [3] and 89% in data set [4].
The term inhibition denotes the drop in the measured response relative to a control, in per cent. As to `CCc1nn(C)c2nc(-c3ccc4c(c3)COB4O)nc(NCc3ccc(F)cc3)c12`, the Activity result in [5] is “Non-toxic”. In addition, the inhibition is -7.2% in data set [6]; 32% in data set [7]; 17% in data set [8]; 8% in [9]; 54% in data set [10]; 73% in data set [11]. The inhibition in [12] is 27%; in [13] it was 80%; in data set [14], 63%; in data set [15], 23%; in data set [16] it was 20%; in [17] it was -5.5%. Also, the result in data set [18] was Active.
The term solubility denotes the dissolved amount per volume that the medium holds. What is called IC50 is the concentration needed to halve the response being measured. Regarding `CCc1nn(C)c2nc(-c3ccc(C(=O)O)cc3)nc(NCc3ccc(F)cc3)c12`, the Activity entry in [5] is given as “Non-toxic”. The inhibition was 18% in [6]; 36% in data set [7]; 27% in data set [8]; 2% in [9]; 31% in [10]; 54% in data set [11]. The inhibition in data set [12] is 42%; in data set [13] it was 93%; in [14], 79%; in data set [15], 22%; in [16] it was 30%; in data set [17], 37%. Also, in [19], the inhibition turned out to be 55%. The compound also returned a solubility in [20] above 200 µM. In [18], the outcome was Active. Further, in [21], the CC50 at 48 h was above 100 µM. Also, the IC50 in data set [22], in [23], in [24], in data set [25], in data set [26] and in data set [27] was above 10 µM each time. Moreover, the results for the IC50 in [28] and in data set [29] were above 10 µM and 8.2 µM, respectively. The inhibition at 10 µM in [30], in [31], in data set [32] and in data set [33] was above 50% in each case.
Regarding `CCc1nn(C)c2nc(-c3ccc(B(O)O)cc3)nc(NCc3ccc(F)cc3)c12`, the EC50 in data set [1] was found to be 0.78 µM. Also, the Activity entry in data set [5] was “Non-toxic”. The inhibition was 31% in data set [6]; 95% in data set [7]; 62% in [8]; 45% in [9]; 93% in [10]; 96% in data set [11]. The inhibition came out at 91% in data set [12]; 73% in data set [13]; 98% in data set [14]; 62% in data set [15]; 29% in [16]; 24% in data set [17]. For the same compound, the inhibition in data set [19] came to 82%. Also, the outcome in data set [18] was Active.
As to `COC(=O)[C@H](c1ccccc1Cl)N1CCc2sccc2C1` [CLOPIDOGREL], in [34], the IC50 worked out at 200 nM.
